Reference: patent publication US12479830B2, “Homopiperazinyl and homopiperidinyl quinazolin-4(3H)-one derivatives having multimodal activity against pain” (ESTEVE PHARMACEUTICALS, S.A., priority 2019, dated 2025)

Columns and labels:
[1] = target: Human α2δ-1 subunit of Cav2.2 calcium channel (Homo sapiens, UniProt P54289); assay: Human α2δ-1 subunit of Cav2.2 calcium channel assay ([3H]-gabapentin binding); conditions: binding to the α2δ-1 subunit of voltage-gated calcium channels, expressed as Ki class; + also covers inhibition between 1% and 50%
Human α2δ-1 subunit of Cav2.2 calcium channel, sequence (P54289 25-1103): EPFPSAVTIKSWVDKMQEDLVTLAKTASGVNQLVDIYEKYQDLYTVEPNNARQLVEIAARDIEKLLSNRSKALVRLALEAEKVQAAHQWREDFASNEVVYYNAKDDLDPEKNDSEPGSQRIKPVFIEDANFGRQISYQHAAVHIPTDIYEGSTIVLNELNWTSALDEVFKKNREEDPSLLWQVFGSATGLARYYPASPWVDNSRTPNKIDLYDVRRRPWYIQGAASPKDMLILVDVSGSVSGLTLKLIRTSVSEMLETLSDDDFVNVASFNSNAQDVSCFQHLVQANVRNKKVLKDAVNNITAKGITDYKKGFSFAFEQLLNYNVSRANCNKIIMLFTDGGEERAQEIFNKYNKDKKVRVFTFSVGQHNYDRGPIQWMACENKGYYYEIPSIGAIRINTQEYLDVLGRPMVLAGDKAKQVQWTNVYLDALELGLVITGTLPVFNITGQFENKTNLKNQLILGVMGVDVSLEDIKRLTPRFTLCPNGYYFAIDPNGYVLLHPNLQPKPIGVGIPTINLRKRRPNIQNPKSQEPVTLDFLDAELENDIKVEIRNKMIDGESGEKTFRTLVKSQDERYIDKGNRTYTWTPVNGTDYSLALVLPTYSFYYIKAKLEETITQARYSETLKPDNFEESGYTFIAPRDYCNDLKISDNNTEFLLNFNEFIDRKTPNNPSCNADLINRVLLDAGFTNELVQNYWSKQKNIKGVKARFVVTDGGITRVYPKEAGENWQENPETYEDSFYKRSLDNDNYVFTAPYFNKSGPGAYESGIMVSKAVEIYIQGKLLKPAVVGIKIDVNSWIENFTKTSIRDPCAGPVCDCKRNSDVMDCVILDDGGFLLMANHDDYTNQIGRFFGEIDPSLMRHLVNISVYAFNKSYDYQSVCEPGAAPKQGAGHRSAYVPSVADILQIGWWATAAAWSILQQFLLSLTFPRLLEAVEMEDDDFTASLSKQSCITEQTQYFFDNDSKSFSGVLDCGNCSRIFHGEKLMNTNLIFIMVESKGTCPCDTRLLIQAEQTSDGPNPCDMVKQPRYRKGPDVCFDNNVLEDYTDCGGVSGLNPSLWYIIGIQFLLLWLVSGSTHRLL
Method in brief: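 Affinity (Ki, five concentrations) or % inhibition at 1 or 10 μM, from displacement of 15 nM [3H]-gabapentin on human α2δ-1 membranes. Incubation 60 min, 27° C., Hepes-KOH 10 mM pH 7.4; 10 μM pregabalin defined non-specific binding; bound radioactivity counted after GF/C filtration.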

[2] = target: T1, Human σ1 receptor (Homo sapiens, UniProt Q99720); assay: Human σ1 receptor radioligand assay ([3H](+)-pentazocine binding); conditions: binding to the σ1 receptor, expressed as Ki class; + also covers inhibition between 1% and 50%
T1 construct: expressed in transfected cells; host or cells: HEK-293
T1 sequence (Q99720 whole entry): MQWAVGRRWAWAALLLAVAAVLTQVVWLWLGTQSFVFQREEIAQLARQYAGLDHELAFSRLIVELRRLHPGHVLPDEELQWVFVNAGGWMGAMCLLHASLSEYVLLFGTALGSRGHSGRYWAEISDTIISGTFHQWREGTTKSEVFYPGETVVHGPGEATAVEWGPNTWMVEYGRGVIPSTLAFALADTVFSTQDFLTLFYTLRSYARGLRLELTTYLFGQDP
Method in brief: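 Ki was derived from five test concentrations, or % inhibition was measured at a single 1 or 10 μM dose, against 5 nM [3H](+)-pentazocine. Incubation was 120 min at 37° C in 50 mM Tris-HCl pH 8 with 7 μg HEK-293 membranes, and 10 μM haloperidol set non-specific binding. Bound radioactivity was counted after filtration.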

Structure (SMILES) | Ki [1] [nM] | Ki [2] [nM]
CCC[C@H](c1nc2ncc(Br)cc2c(=O)n1CC)N1CCN(C)C[C@@H](C)C1 [Example 186, 6-bromo-2-((R)-1-((R)-4,6-dimethyl-1,4-diazepan-1-yl)butyl)-3-ethylpyrido[2,3-d]pyrimidin-4(3H)-one] | < 500 | > 1000
CCC[C@@H](c1nc2ccc(Br)cc2c(=O)n1CC)N1CCN(C)C[C@@H](COC)C1 [Example 108, 6-bromo-3-ethyl-2-((S)-1-((R)-6-(methoxymethyl)-4-methyl-1,4-diazepan-1-yl)butyl)quinazolin-4(3/1)-one] | > 5000 | 500 to 1000
CCC[C@H](c1nc2ncc(Br)cc2c(=O)n1CC)N1CCCN(CC)CC1 [Example 176, 6-bromo-3-ethyl-2-(1-(4-ethyl-1,4-diazepan-1-yl)butyl)pyrido[2,3-d]pyrimidin-4(3H)-one] | > 5000 | > 1000
CCCC(c1nc2ccc(F)cc2c(=O)n1CC)C1CCCN(C)CC1 (stereo not shown) [Example 267, 3-ethyl-6-fluoro-2-(1-(1-methylazepan-4-yl)butyl)quinazolin-4(3H)-one] | < 500 | 500 to 1000
CCC[C@@H](c1nc2cc(Cl)c(Cl)cc2c(=O)n1CC)N1CCN(C)C[C@H](C)C1 [Example 133, 6,7-dichloro-2-((S)-1-((S)-4,6-dimethyl-1,4-diazepan-1-yl)butyl)-3-ethylquinazolin-4(3H)-one] | > 5000 | > 1000
CCCC(c1nc2ccc(Br)cc2c(=O)n1CC)N1CCN2CCC1CC2 (stereo not shown) [Example 80, 2-(1-(1,4-diazabicyclo[3.2.2]nonan-4-yl)butyl)-6-bromo-3-ethylquinazolin-4(3H)-one] | > 5000 | > 1000
CCC[C@H](c1nc2ccc(Br)cc2c(=O)n1CC)N1CCN[C@@H](C)CC1 [Example 93, 6-bromo-3-ethyl-2-((R)-1-((S)-5-methyl-1,4-diazepan-1-yl)butyl)quinazolin-4(3H)-one] | < 500 | 500 to 1000
CCC[C@H](c1nc2ccc(Br)cc2c(=O)n1CC)N1CCCN[C@H](C)C1 [Example 139, 6-Bromo-3-ethyl-2-((R)-1-((R)-3-methyl-1,4-diazepan-1-yl)butyl)quinazolin-4(3H)-one] | < 500 | 500 to 1000
CCC[C@@H](c1nc2ccc(F)cc2c(=O)n1CC)N1CCCN[C@@H](C)C1 [Example 144, 3-ethyl-6-fluoro-2-((S)-1-((S)-3-methyl-1,4-diazepan-1-yl)butyl)quinazolin-4(3H)-one] | > 5000 | > 1000
CCCC(c1nc2cc(F)c(Br)cc2c(=O)n1CCC)N1CCCNCC1 (stereo not shown) [Example 34, 2-(1-(1,4-diazepan-1-yl)butyl)-6-bromo-7-fluoro-3-propylquinazolin-4(3H)-one] | < 500 | > 1000
CCCC(c1nc2ccc(Br)c(Cl)c2c(=O)n1CC)N1CCCNCC1 (stereo not shown) [Example 82, 2-(1-(1,4-diazepan-1-yl)butyl)-6-bromo-5-chloro-3-ethylquinazolin-4(3H)-one] | 500 to 5000 | 500 to 1000
CCC[C@H](c1nc2cc(F)c(Br)cc2c(=O)n1CC)N1CCN(C)C[C@@H](C)C1 [Example 130, 6-bromo-2-((R)-1-((R)-4,6-dimethyl-1,4-diazepan-1-yl)butyl)-3-ethyl-7-fluoroquinazolin-4 (3H)-one] | < 500 | 500 to 1000
CCC[C@H](c1nc2ccc(Cl)cc2c(=O)n1C)N1CCN[C@@H](C)CC1 [Example 246, 6-chloro-3-methyl-2-((R)-1-((S)-5-methyl-1,4-diazepan-1-yl)butyl)quinazolin-4(3H)-one] | 500 to 5000 | < 500
CCC[C@H](c1nc2cc(F)c(Br)cc2c(=O)n1CC)N1CCN(C)C[C@H](C)C1 [Example 127, 6-Bromo-2-((R)-1-((S)-4,6-dimethyl-1,4-diazepan-1-yl)butyl)-3-ethyl-7-fluoroquinazolin-4(3H)-one] | < 500 | 500 to 1000
CCC[C@H](c1nc2ccc(Br)cc2c(=O)n1CC)N1CCN(C)C[C@H](CO)C1 [Example 123, 6-Bromo-3-ethyl-2-((R)-1-((S)-6-(hydroxymethyl)-4-methyl-1,4-diazepan-1-yl)butyl)quinazolin-4(3H)-one] | < 500 | 500 to 1000
CCC[C@H](c1nc2ccncc2c(=O)n1CC)N1CCNC[C@@H](C)C1 [Example 165, 3-ethyl-2-((R)-1-((R)-6-methyl-1,4-diazepan-1-yl)butyl)pyrido[4,3-d]pyrimidin-4(3H)-one] | < 500 | > 1000
CCCC(c1nc2ccncc2c(=O)n1CC)N1CCCNCC1 (stereo not shown) [Example 172, 2-(1-(1,4-diazepan-1-yl)butyl)-3-ethylpyrido[4,3-d]pyrimidin-4(3H)-one] | < 500 | > 1000
CCC[C@H](c1nc2ncc(Br)cc2c(=O)n1CC)N1CCNC[C@H](C)C1 [Example 197, 6-bormo-3-ethyl-2-((R)-1-((S)-6-methyl-1,4-diazepan-1-yl)butyl)pyrido[2,3-d]pyrimidin-4(3H)-one] | < 500 | > 1000
CCC[C@@H](c1nc2cc(Cl)c(Cl)cc2c(=O)n1CC)N1CCN(C)C[C@@H](C)C1 [Example 134, 6,7-dichloro-2-((S)-1-((R)-4,6-dimethyl-1,4-diazepan-1-yl)butyl)-3-ethylquinazolin-4(3H)-one] | > 5000 | 500 to 1000
CCCC(c1nc2ncc(Br)cc2c(=O)n1CCC)N1CCCN(C)CC1 (stereo not shown) [Example 181, 6-bromo-2-(1-(4-methyl-1,4-diazepan-1-yl)butyl)-3-propylpyrido[2,3-d]pyrimidin-4(3H)-one] | < 500 | > 1000
CCC[C@@H](c1nc2ccc(F)cc2c(=O)n1CC)N1CCCN[C@H](C)C1 [Example 146] | > 5000 | > 1000
CCCC(c1nc2ccc(NC3CCN(C)CC3)cc2c(=O)n1CC)N1CCCN(C)CC1 (stereo not shown) [Example 206, 3-Ethyl-2-(1-(4-methyl-1,4-diazepan-1-yl)butyl)-6-((1-methylpiperidin-4-yl)amino)quinazolin-4(3H)-one] | < 500 | > 1000
CCC[C@@H](c1nc2ccc(Br)cc2c(=O)n1CC)N1CCN(C)C[C@H](CO)C1 [Example 126, 6-bromo-3-ethyl-2-((S)-1-((S)-6-(hydroxymethyl)-4-methyl-1,4-diazepan-1-yl)butyl)quinazolin-4(3H)-one] | 500 to 5000 | 500 to 1000

Next, values leading:

Ki [1] [nM] | Ki [2] [nM] | Structure (SMILES)
> 5000 | > 1000 | CCC[C@H](c1nc2cc(F)c(Br)cc2c(=O)n1CC)N1CCCN(C)CC1 [Example 155, (R)-6-Bromo-3-ethyl-7-fluoro-2-(1-(4-methyl-1,4-diazepan-1-yl)butyl)quinazolin-4(3H)-one]
< 500 | 500 to 1000 | CCC[C@H](c1nc2c(F)cc(F)cc2c(=O)n1CC)N1CCCN(C)CC1 [Example 247, (R)-3-ethyl-6,8-difluoro-2-(1-(4-methyl-1,4-diazepan-1-yl)butyl)quinazolin-4(3H)-one]
500 to 5000 | < 500 | CCCC(c1nc2cc(F)c(Br)cc2c(=O)n1C)N1CCCN(C)CC1 (stereo not shown) [Example 77, 6-bromo-7-fluoro-3-methyl-2-(1-(4-methyl-1,4-diazepan-1-yl)butyl)quinazolin-4(3H)-one]
> 5000 | < 500 | CCC[C@H](c1nc2ccc(F)cc2c(=O)n1C)N1CCCN(CC)CC1 [Example 217, (R)-2-(1-(4-ethyl-1,4-diazepan-1-yl)butyl)-6-fluoro-3-methylquinazolin-4(3H)-one]
< 500 | < 500 | CCCC(c1nc2ccc(Br)cc2c(=O)n1CC)N1CCCN(CC)CC1 (stereo not shown) [Example 7, 6-bromo-3-ethyl-2-(1-(4-ethyl-1,4-diazepan-1-yl)butyl)quinazolin-4(3H)-one]
< 500 | < 500 | CCC[C@H](c1nc2ccc(F)cc2c(=O)n1CC)N1CCCN(C)CC1 [Example 209, (R)-3-Ethyl-6-fluoro-2-(1-(4-methyl-1,4-diazepan-1-yl)butyl)quinazolin-4(3H)-one]
< 500 | > 1000 | CCCC(c1nc2cnccc2c(=O)n1CC)N1CCCN(C)CC1 (stereo not shown) [Example 17, 3-ethyl-2-(1-(4-methyl-1,4-diazepan-1-yl)butyl)pyrido[3,4-d]pyrimidin-4(3H)-one]
< 500 | 500 to 1000 | CCC[C@H](c1nc2c(F)cc(Br)cc2c(=O)n1CC)N1CCCN(C)CC1 [Example 161, (R)-6-Bromo-3-ethyl-8-fluoro-2-(1-(4-methyl-1,4-diazepan-1-yl)butyl)quinazolin-4(3H)-one]
< 500 | < 500 | CCCC(c1nc2ccc(F)c(F)c2c(=O)n1CC)N1CCCN(C)CC1 (stereo not shown) [Example 72, 3-ethyl-5,6-difluoro-2-(1-(4-methyl-1,4-diazepan-1-yl)butyl)quinazolin-4(3H)-one]
< 500 | > 1000 | CCCC(c1nc2cnc(OC)cc2c(=O)n1CC)N1CCCN(C)CC1 (stereo not shown) [Example 191, 3-ethyl-6-methoxy-2-(1-(4-methyl-1,4-diazepan-1-yl)butyl)pyrido[3,4-d]pyrimidin-4(3H)-one]
< 500 | > 1000 | CCCC(c1nc2ccc(CC)cc2c(=O)n1CC)N1CCCN(C)CC1 (stereo not shown) [Example 205, 3,6-diethyl-2-(1-(4-methyl-1,4-diazepan-1-yl)butyl)quinazolin-4(3H)-one]
< 500 | 500 to 1000 | CCCC(c1nc2ccc(Cl)cc2c(=O)n1CCC)N1CCCN(C)CC1 (stereo not shown) [Example 23, 6-chloro-2-(1-(4-methyl-1,4-diazepan-1-yl)butyl)-3-propylquinazolin-4(3H)-one]
